Assay results reported in the supplement of paper PMC10307832.

Columns and labels:
Assay in all cases: relative viability (nuclei count vs DMSO), 5 days (fraction); higher = more cells survive
SGI-1776 + Phenformin = compound: CN1CCC(CNc2ccc3ncc(-c4cccc(OC(F)(F)F)c4)n3n2)CC1 [SGI-1776] + N=C(N)NC(=N)NCCc1ccccc1 [Phenformin] (partner 250 µM)
How it was run: (§1)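 The day after seeding in 1536-well plates, lung cancer cell lines were treated by pin tool with a single drug, or with a fixed anchor-drug dose together with five library-drug doses (not always all listed) in √10 steps. After 5 days, a combined fix-and-stain solution (final 0.05% Triton X-100, 1% formaldehyde, 1 ug/ml Hoechst) was added. Nuclei counted on 4× images gave relative viability as treated counts over vehicle counts, reported as the median of duplicate plates.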

SGI-1776 + Pemetrexed = compound: CN1CCC(CNc2ccc3ncc(-c4cccc(OC(F)(F)F)c4)n3n2)CC1 [SGI-1776] + Nc1nc2[nH]cc(CCc3ccc(C(=O)N[C@@H](CCC(=O)O)C(=O)O)cc3)c2c(=O)[nH]1 [Pemetrexed] (partner 0.2 µM)
How it was run: as §1

SGI-1776 + Olaparib = compound: CN1CCC(CNc2ccc3ncc(-c4cccc(OC(F)(F)F)c4)n3n2)CC1 [SGI-1776] + O=C(c1cc(Cc2n[nH]c(=O)c3ccccc23)ccc1F)N1CCN(C(=O)C2CC2)CC1 [Olaparib] (partner 8 µM)
How it was run: as §1

[1] = compound: C1COCCN1C2=NC(=NC3=C2OC4=C3C=CC=N4)C5=CC(=CC=C5)NC(=O)C6=CN=C(C=C6)N + O=C(c1cc(Cc2n[nH]c(=O)c3ccccc23)ccc1F)N1CCN(C(=O)C2CC2)CC1 [Olaparib] (partner 8 µM)
How it was run: as §1

| Cell Line | relative viability (SGI-1776 + Phenformin; first compound 0.08 µM) | relative viability (SGI-1776 + Phenformin; first compound 0.8 µM) | relative viability (SGI-1776 + Phenformin; first compound 2.53 µM) | relative viability (SGI-1776 + Phenformin; first compound 8 µM) | relative viability (SGI-1776 + Pemetrexed; first compound 0.08 µM) | relative viability (SGI-1776 + Pemetrexed; first compound 0.8 µM) | relative viability (SGI-1776 + Pemetrexed; first compound 2.53 µM) | relative viability (SGI-1776 + Pemetrexed; first compound 8 µM) | relative viability (SGI-1776 + Olaparib; first compound 0.08 µM) | relative viability (SGI-1776 + Olaparib; first compound 0.8 µM) | relative viability (SGI-1776 + Olaparib; first compound 2.53 µM) | relative viability (SGI-1776 + Olaparib; first compound 8 µM) | relative viability ([1]; first compound 0.02 µM) | relative viability ([1]; first compound 0.06325 µM) | relative viability ([1]; first compound 0.2 µM) | relative viability ([1]; first compound 0.6325 µM) | relative viability ([1]; first compound 2 µM) |
| --- | --- | --- | --- | --- | --- | --- | --- | --- | --- | --- | --- | --- | --- | --- | --- | --- | --- |
| NCI-H2023 | 0.379 | 0.377 | 0.332 | 0.282 | 0.282 | 0.222 | 0.244 | 0.174 | 0.499 | 0.516 | 0.51 | 0.347 | 0.587 | 0.519 | 0.379 | 0.463 | 0.316 |
| NCI-H1395 | 0.464 | 0.434 | 0.46 | 0.413 | 0.876 | 0.836 | 0.784 | 0.605 | 0.473 | 0.452 | 0.438 | 0.347 | 0.473 | 0.427 | 0.422 | 0.461 | 0.377 |
| NCI-H23 | 0.77 | 0.702 | 0.752 | 0.72 | 0.763 | 0.799 | 0.659 | 0.569 | 0.32 | 0.331 | 0.299 | 0.332 | 0.417 | 0.314 | 0.281 | 0.3 | 0.226 |
| LXF-289 | 0.54 | 0.534 | 0.496 | 0.486 | 0.875 | 1 | 0.808 | 0.9 | 0.966 | 1.12 | 1.1 | 1.03 | 1.13 | 1.18 | 1.17 | 1.06 | 0.803 |
| EKVX | 0.237 | 0.241 | 0.24 | 0.241 | 0.396 | 0.477 | 0.395 | 0.371 | 0.827 | 0.906 | 0.875 | 0.737 | 0.929 | 0.831 | 0.88 | 0.832 | 0.563 |
| LC-2-ad | 0.572 | 0.554 | 0.667 | 0.362 | 0.286 | 0.288 | 0.285 | 0.254 | 0.755 | 0.776 | 0.756 | 0.696 | 0.678 | 0.705 | 0.682 | 0.846 | 0.648 |
| NCI-H596 | 0.724 | 0.688 | 0.701 | 0.704 | 0.442 | 0.51 | 0.505 | 0.461 | 0.662 | 1 | 0.82 | 0.696 | 0.589 | 0.668 | 0.601 | 0.747 | 0.621 |
| NCI-H1734 | 0.41 | 0.366 | 0.394 | 0.284 | 0.412 | 0.371 | 0.399 | 0.377 | 0.69 | 0.691 | 0.715 | 0.567 | 0.645 | 0.646 | 0.611 | 0.564 | 0.496 |
